Assay [1] addresses T1, human ALDH2*2 recombinant mutant enzyme (E487K) (Homo sapiens, UniProt P05091, E504K).
T1 construct: His-tag (pTrcHis vector) (N); made in house; host or cells: E. coli BL21
T1 sequence (P05091 18-517 E504K): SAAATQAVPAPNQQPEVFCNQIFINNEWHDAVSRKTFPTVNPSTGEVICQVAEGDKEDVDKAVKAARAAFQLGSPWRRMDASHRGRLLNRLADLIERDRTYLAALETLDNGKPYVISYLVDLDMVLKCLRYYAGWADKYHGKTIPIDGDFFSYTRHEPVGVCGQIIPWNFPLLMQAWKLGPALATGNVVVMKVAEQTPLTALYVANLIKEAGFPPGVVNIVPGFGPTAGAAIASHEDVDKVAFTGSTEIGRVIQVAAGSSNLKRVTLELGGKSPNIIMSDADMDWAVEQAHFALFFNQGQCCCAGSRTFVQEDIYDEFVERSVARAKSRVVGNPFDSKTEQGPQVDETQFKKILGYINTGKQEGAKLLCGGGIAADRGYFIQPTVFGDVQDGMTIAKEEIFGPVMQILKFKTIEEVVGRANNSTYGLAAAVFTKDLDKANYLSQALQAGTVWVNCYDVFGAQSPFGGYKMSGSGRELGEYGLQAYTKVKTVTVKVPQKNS
Kind of assay: ALDH2 enzymatic assay (NADH at 340 nm), recombinant mutant enzyme. In kind it is biochemical. Also noted: key: −: no activation or inhibition; +: activation less than control 1; ++: activation similar to control 1, within 10%; +++: activation more than control 1 and less than control (compound 161); ++++: activation similar to compound 161, within 10%. As to conditions: activation relative to benchmarks control 1 and compound 161. The text has this:
(§1) ALDH2 catalyzes the oxidative reaction of substrate acetaldehyde to acetic acid using NAD^+ as a cofactor. Enzymatic activity, or catalytic rate, of aldehyde dehydrogenase (ALDH2) can be measured spectrophotometrically at UV wavelength λ340 nm by the accumulation of reduced product NADH derived from NAD^+. […] This method is well-established in the literature [e.g. D. K. Rex, W. F. Bosron, J. E. Smialek, T. K. Li, Alcohol Clin Exp Res 9, 147 (1985)].
(§2) Full-length wild type human ALDH2 cDNA was purchased from ATCC (No. MGC-1806. GenBank ID: BC002967). The 18-amino acid mitochondria transport signal sequence was removed by PCR and cloned into the NheI/HindIII sites of a His-tag vector, pTrcHis, using standard molecular cloning techniques. The human ALDH2* cDNA construct containing the Asian E487K mutation was obtained by site-directed mutagenesis to create the E487K substitution of the wild type ALDH2. Both human clones were designed to express a recombinant protein with the His-tag at the N-terminus of the protein. For the co-expression experiments of human ALDH2 wild type and ALDH2*2 heterotetramers, a wild type ALDH2 gene and a ALDH2 E487K gene were inserted separately into the two multiple cloning sites of pETDuet-1 vector. (Novagen, Calif., USA). All the vectors were transformed into BL21 E. coli host cells and subjected to 0.5 mM IPTG induction for protein expression at 30° C. Purifications of the recombinant proteins by affinity nickel columns (HisTrap, GE Healthy Science, USA) were carried out using standard protocols according to manufacturer's instructions (Novagen, USA).
(§3) Control 1 and compound 161 are used as benchmarks and the symbols have the following representation: […]

For another assay, the target named is T2, human ALDH2 wild type (Homo sapiens, UniProt P05091).
T2 construct: His-tag (pTrcHis vector) (N); made in house; host or cells: E. coli BL21
T2 sequence (P05091 18-517): T1 sequence (P05091 18-517 E504K) with K487E
Kind of assay: ALDH2 enzymatic assay (NADH at 340 nm), recombinant wild type enzyme. It counts as biochemical. Also noted: key: −: no activation or inhibition; +: activation less than control 1; ++: activation similar to control 1, within 10%; +++: activation more than control 1 and less than control (compound 161); ++++: activation similar to compound 161, within 10%. As to conditions: activation relative to benchmarks control 1 and compound 161.
From the text: as §1, §2, §3

The results in this text go back to patent US9670162B2, “Mitochondrial aldehyde dehyrogenase-2 modulators and methods of use thereof” (The Board of Trustees of the Leland Stanford Junior …, priority 2013, dated 2017).

SMILES strings stand for the structures. Residue numbers refer to the chain shown, from its start.

`COc1ccc(CNC(=O)c2ccccc2Cl)cc1F` [Compound 121]: the “ALDH2 (mutant)” value in assay [1] was “+”. In addition, at human ALDH2 wild type, the “ALDH2 (wild-type)” value is listed as “+”.
On to `O=C(NCc1ccc2occc2c1)c1c(Cl)ccnc1OCC1CC1` [Compound 257], for which the “ALDH2 (mutant)” value in assay [1] is “+”. Besides, the “ALDH2 (wild-type)” value on human ALDH2 wild type is “+”.
In the case of `COc1ccc(CNC(=O)c2c(Cl)ccnc2OC2CC2)cc1F` [Compound 196], the “ALDH2 (mutant)” value in assay [1] is listed as “++”. Besides, the “ALDH2 (wild-type)” value at human ALDH2 wild type is “++”.
Turning to `COc1ccc(CNC(=O)c2c(Cl)ccnc2OCC2CC2)cc1C` [Compound 256], in assay [1], the “ALDH2 (mutant)” value is on record as “+”. Besides, the “ALDH2 (wild-type)” value on human ALDH2 wild type is on record as “+”.
Regarding `CCC(CC)Oc1cccc(Cl)c1C(=O)NCc1ccc(OC)c(F)c1` [Compound 142], the “ALDH2 (mutant)” value in assay [1] is “+++”. For the same molecule, on human ALDH2 wild type, the “ALDH2 (wild-type)” value is “++”.
With `O=C(NCc1ccc2c(c1)CCO2)c1c(Cl)ccnc1OCC1CC1` [Compound 245], the “ALDH2 (mutant)” value in assay [1] was “+++”. Also, the “ALDH2 (wild-type)” value at human ALDH2 wild type is reported as “+”.
For the molecule `COc1ccc(CNC(=O)c2c(Cl)cccc2OCC2CCCC2)cc1F` [Compound 145], the “ALDH2 (mutant)” value in assay [1] is listed as “+++”. For the same molecule, the “ALDH2 (wild-type)” value at human ALDH2 wild type was “++”.
As for `COc1ccc(CNS(=O)(=O)c2c(Cl)cccc2OCC2CC2)cc1F` [Compound 164], in assay [1], the “ALDH2 (mutant)” value is listed as “+”. In addition, the “ALDH2 (wild-type)” value at human ALDH2 wild type is given as “+”.
Take `COc1ccc(CNC(=O)c2c(Cl)cccc2NC2CCCC2)cc1F` [Compound 148]: in assay [1], the “ALDH2 (mutant)” value was “+”. For the same molecule, the “ALDH2 (wild-type)” value on human ALDH2 wild type is given as “+”.
Regarding `CCOc1nccc(Cl)c1C(=O)NCc1ccc(OC)c(F)c1` [Compound 193], the “ALDH2 (mutant)” value in assay [1] is given as “++”. Also, the “ALDH2 (wild-type)” value on human ALDH2 wild type was “++”.
In the case of `COc1ccc(CNC(=O)c2c(Cl)cccc2OCC2(C)CC2)cc1F` [Compound 151], the “ALDH2 (mutant)” value in assay [1] is given as “++++”. Further, on human ALDH2 wild type, the “ALDH2 (wild-type)” value was “++++”.
As to `COc1cc(CNC(=O)c2c(Cl)ccnc2Cl)ccc1F` [Compound 171], in assay [1], the “ALDH2 (mutant)” value is on record as “−”. Further, the “ALDH2 (wild-type)” value on human ALDH2 wild type was “−”.
In the case of `COc1ccc(CNC(=O)c2c(Cl)ccnc2NCC(C)C)cc1F` [Compound 182], the “ALDH2 (mutant)” value in assay [1] is “++”. Also, the “ALDH2 (wild-type)” value on human ALDH2 wild type is on record as “+”.
For `CC(C)Oc1ccc(CNC(=O)c2c(Cl)ccnc2OCC2CC2)cc1F` [Compound 188], in assay [1], the “ALDH2 (mutant)” value is given as “−”. For the same molecule, on human ALDH2 wild type, the “ALDH2 (wild-type)” value is “−”.
On to `CCCOc1cccc(Cl)c1C(=O)NCc1ccc(OC)c(F)c1` [Compound 147], for which the “ALDH2 (mutant)” value in assay [1] was “+++”. The “ALDH2 (wild-type)” value on human ALDH2 wild type is “+++”.
As for `COc1ccc(CNC(=O)c2c(Cl)cccc2Br)cc1F` [Compound 106], the “ALDH2 (mutant)” value in assay [1] is “++”. Also, the “ALDH2 (wild-type)” value on human ALDH2 wild type is on record as “+”.
The matching figures for `COc1ccc(CNC(=O)c2c(C)cccc2C)cc1` [Compound 114]: “+” and “+”.
The matching figures for `CC(C)Oc1ccc(CNC(=O)c2c(Cl)ccnc2NCC2CC2)cc1F` [Compound 189]: “+” and “−”.
Turning to `C=CCOc1cccc(Cl)c1C(=O)NCc1ccc(OC)c(F)c1` [Compound 141], the “ALDH2 (mutant)” value in assay [1] is “+++”. Moreover, on human ALDH2 wild type, the “ALDH2 (wild-type)” value is given as “++”.
As for `CCC(CC)Oc1nccc(C(F)(F)F)c1C(=O)NCc1ccc(OC)c(F)c1` [Compound 228], the “ALDH2 (mutant)” value in assay [1] was “+”. Besides, the “ALDH2 (wild-type)” value at human ALDH2 wild type is recorded as “+”.
As to `CS(=O)(=O)c1ccc(CNC(=O)c2c(Cl)cccc2Cl)cc1` [Compound 112], the “ALDH2 (mutant)” value in assay [1] is recorded as “+”. Further, on human ALDH2 wild type, the “ALDH2 (wild-type)” value is “+”.
`COc1ccc(CNC(=O)c2c(Cl)ccnc2SC(C)C)cc1F` [Compound 216]: in assay [1], the “ALDH2 (mutant)” value was “+”. In addition, the “ALDH2 (wild-type)” value at human ALDH2 wild type is listed as “+”.
For the molecule `COc1ccc(CNC(=O)c2c(C)ccnc2OCC2CCCC2)cc1F` [Compound 236], in assay [1], the “ALDH2 (mutant)” value was “+”. Besides, the “ALDH2 (wild-type)” value at human ALDH2 wild type is “+”.
In the case of `COc1ccc(CNC(=O)c2c(Cl)cccc2OCC(C)(C)N(C)C)cc1F` [Compound 167], the “ALDH2 (mutant)” value in assay [1] is given as “+”. For the same molecule, the “ALDH2 (wild-type)” value at human ALDH2 wild type is on record as “+”.
Take `O=C(NCc1ccc2ncoc2c1)c1c(Cl)ccnc1OCC1CC1` [Compound 259]: the “ALDH2 (mutant)” value in assay [1] is recorded as “+”. Further, on human ALDH2 wild type, the “ALDH2 (wild-type)” value is listed as “+”.
`O=S(=O)(NCc1ccc(F)c(F)c1)c1c(Cl)cccc1Cl` [Compound 156]: the “ALDH2 (mutant)” value in assay [1] is recorded as “+”. Moreover, the “ALDH2 (wild-type)” value at human ALDH2 wild type is listed as “−”.
The matching figures for `COc1ccc(CNC(=O)c2cc(Br)ccc2C)cc1F` [Compound 123]: “+” and “+”.
With `COc1ccc(CNC(=O)c2c(Cl)cccc2NCCO)cc1F` [Compound 109], the “ALDH2 (mutant)” value in assay [1] is on record as “++”. Besides, on human ALDH2 wild type, the “ALDH2 (wild-type)” value is “+”.
`COc1c(F)cc(CNC(=O)c2c(Cl)ccnc2Cl)cc1F` [Compound 173]: the “ALDH2 (mutant)” value in assay [1] is on record as “++”. In addition, at human ALDH2 wild type, the “ALDH2 (wild-type)” value is “+”.
Consider `O=C(NCc1ccc(OC(F)(F)F)c(F)c1)c1c(Cl)ccnc1NCC1CC1` [Compound 191], for which, in assay [1], the “ALDH2 (mutant)” value was “+”. Moreover, on human ALDH2 wild type, the “ALDH2 (wild-type)” value was “+”.
Regarding `COc1ccc(CNC(=O)c2c(Cl)ccnc2OCC2CC2)cn1` [Compound 255], in assay [1], the “ALDH2 (mutant)” value was “+”. In addition, the “ALDH2 (wild-type)” value on human ALDH2 wild type is “+”.
With `O=C(NCc1ccc(O)c(F)c1)c1c(Cl)ccnc1OCC1CC1` [Compound 248], the “ALDH2 (mutant)” value in assay [1] is “−”. Moreover, the “ALDH2 (wild-type)” value on human ALDH2 wild type was “−”.
Regarding `COc1ccc(CNC(=O)c2c(Cl)ccnc2OC2CCC2)cc1F` [Compound 197], the “ALDH2 (mutant)” value in assay [1] was “++++”. For the same molecule, the “ALDH2 (wild-type)” value on human ALDH2 wild type was “++++”.
As to `COc1ccc(CNC(=O)c2c(Cl)cccc2NCc2cccc(C)c2)cc1F` [Compound 129], the “ALDH2 (mutant)” value in assay [1] was “−”. The “ALDH2 (wild-type)” value at human ALDH2 wild type was “−”.
For the molecule `COc1ccc(CNC(=O)c2c(Cl)ccnc2OCCN(C)C)cc1F` [Compound 184], in assay [1], the “ALDH2 (mutant)” value is “++”. The “ALDH2 (wild-type)” value on human ALDH2 wild type is given as “+”.
`O=C(NCc1ccc2c(c1)OCO2)c1c(Cl)cccc1NC1CCCNC1` (stereo not shown) [Compound 133]: the “ALDH2 (mutant)” value in assay [1] is on record as “+”. Further, the “ALDH2 (wild-type)” value on human ALDH2 wild type is “+”.
`CCS(=O)(=O)c1nccc(Cl)c1C(=O)NCc1ccc(OC)c(F)c1` [Compound 220]: the “ALDH2 (mutant)” value in assay [1] is listed as “+”. Besides, the “ALDH2 (wild-type)” value on human ALDH2 wild type is given as “+”.
For `COc1ccc(CNC(=O)c2c(Cl)ccnc2OCC2(C)CC2)cc1F` [Compound 178], in assay [1], the “ALDH2 (mutant)” value is “++++”. The “ALDH2 (wild-type)” value on human ALDH2 wild type is “++++”.
`COc1ccc(CNC(=O)c2c(Cl)cccc2Oc2ccc(Cl)cc2)cc1F` [Compound 137]: in assay [1], the “ALDH2 (mutant)” value is recorded as “+”. Also, the “ALDH2 (wild-type)” value at human ALDH2 wild type was “++”.
As to `COc1ccc(CNC(=O)c2c(Cl)cccc2OCCN(C)C)cc1F` [Compound 165], the “ALDH2 (mutant)” value in assay [1] is reported as “++”. For the same molecule, at human ALDH2 wild type, the “ALDH2 (wild-type)” value is “++”.
For the molecule `COc1ccc(CNC(=O)c2c(Cl)cccc2NCC2CC2)cc1F` [Compound 134], the “ALDH2 (mutant)” value in assay [1] is listed as “+++”. Moreover, the “ALDH2 (wild-type)” value at human ALDH2 wild type is “+++”.
